Consider nine compounds from patent publication US20110105493A1, “HETEROCYCLYL SUBSTITUTED ARYLINDENOPYRIMIDINES AND THEIR USE AS HIGHLY SELECTIVE ADENOSINE A2a RECEPTOR ANTAGONISTS” (priority 2009, published 2011).

Assay [1] addresses T1, human adenosine A1 receptor (Homo sapiens, UniProt P30542).
T1 construct: expressed in transfected cells; host or cells: CHO-K1 cells with a cAMP inducible beta-galactosidase reporter gene
T1 sequence (P30542 1-326): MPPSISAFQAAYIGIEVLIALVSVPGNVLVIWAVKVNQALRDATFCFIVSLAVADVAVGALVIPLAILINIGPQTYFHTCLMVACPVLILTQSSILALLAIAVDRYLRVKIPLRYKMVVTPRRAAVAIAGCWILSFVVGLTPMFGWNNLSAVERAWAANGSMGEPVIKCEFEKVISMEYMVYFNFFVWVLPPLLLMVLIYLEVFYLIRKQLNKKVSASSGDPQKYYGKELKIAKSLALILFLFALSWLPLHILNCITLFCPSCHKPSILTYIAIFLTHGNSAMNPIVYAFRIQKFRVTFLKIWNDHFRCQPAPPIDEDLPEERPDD
Briefly: Adenosine A1 Receptor Functional Assay (A1GAL2). The assay is classed as cell-based. The settings on record: CHO-K1 cells overexpressing human A1 receptor, cAMP inducible beta-galactosidase reporter, 4 nM r-PIA/1 uM Forskolin agonist challenge. The protocol: Adenosine A1 Receptor Functional Assay (A1GAL2)
To initiate the functional assay, cryopreserved CHO—K1 cells overexpressing the human adenosine A1 receptor and containing a cAMP inducible beta-galactosidase reporter gene were thawed, centrifuged, DMSO containing media removed, and then seeded with fresh culture media into clear 384-well tissue culture treated plates (BD #353961) at a concentration of 10K cells/well. Prior to assay, these plates were cultured for two days at 37° C., 5% CO2, 90% Rh. On the day of the functional assay, culture media was removed and replaced with 45 μL assay medium (Hams/F-12 Modified (Mediatech # 10-080CV) supplemented w/0.1% BSA). Test compounds were diluted and 11 point curves created at a 1000× concentration in 100% DMSO. Immediately after addition of assay media to the cell plates, 50 nL of the appropriate test compound antagonist or agonist control curves were added to cell plates using a Cartesian Hummingbird. Compound curves were allowed to incubate at room temperature on cell plates for approximately 15 minutes before addition of a 4 nM r-PIA (Sigma P4532)/1 uM Forskolin (Sigma F3917) agonist challenge (5 μL volume). A control curve of r-PIA in1 uM Forskolin, a DMSO/Media control, and a single dose of Forskolin were also included on each plate. After additions, cell plates were allowed to incubate at 37° C., 5% CO2, 90% Rh for 5.5-6 hours. After incubation, media was removed, and cell plates were washed 1×50 μL with DPBS w/o Ca & Mg (Mediatech 21-031-CV). Into dry wells, 20 μL of 1×Reporter Lysis Buffer (Promega E3971 (diluted in dH2O from 5× stock)) was added to each well and plates frozen at −20° C. overnight. For β-galactosidase enzyme colorimetric assay, plates were thawed out at room temperature and 20 μL 2×assay buffer (Promega) was added to each well. Color was allowed to develop at 37° C., 5% CO2, 90% Rh for 1-1.5 h or until reasonable signal appeared. The colorimetric reaction was stopped with the addition of 60 μL/well 1M sodium carbonate. Plates were counted at 405 nm on a SpectraMax Microplate Reader (Molecular Devices). Data was analyzed in Microsoft Excel and IC/EC50 curves were fit using a standardized macro.

The target of assay [2] is T2, human adenosine A2A receptor (Homo sapiens, UniProt P29274).
T2 construct: expressed in transfected cells; host or cells: CHO-K1 cells with a cAMP inducible beta-galactosidase reporter gene
T2 sequence (P29274 whole entry): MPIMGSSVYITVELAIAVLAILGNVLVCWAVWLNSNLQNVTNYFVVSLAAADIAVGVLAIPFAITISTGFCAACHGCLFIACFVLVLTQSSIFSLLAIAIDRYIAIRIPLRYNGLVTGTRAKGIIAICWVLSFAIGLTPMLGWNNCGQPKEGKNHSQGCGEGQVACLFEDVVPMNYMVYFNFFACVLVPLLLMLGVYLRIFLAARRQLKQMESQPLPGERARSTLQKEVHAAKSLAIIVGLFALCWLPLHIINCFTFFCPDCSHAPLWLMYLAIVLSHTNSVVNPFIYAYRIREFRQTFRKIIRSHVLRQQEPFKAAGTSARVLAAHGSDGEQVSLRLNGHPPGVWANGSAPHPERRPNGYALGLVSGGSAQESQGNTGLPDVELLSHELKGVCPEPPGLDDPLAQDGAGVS
Briefly: Adenosine A2A Receptor Functional Assay (A2A GAL2). It is filed as cell-based. As to conditions: for IC50: CHO-K1 cells overexpressing human A2A receptor, cAMP inducible beta-galactosidase reporter, 15 nM NECA agonist challenge, read-out: A2AGal2; for A1/A2A: ratio of A1Gal2 to A2AGal2 values. The protocol:
Adenosine A2A Receptor Functional Assay (A2A GAL2)
To initiate the functional assay, cryopreserved CHO—K1 cells overexpressing the human adenosine A2A receptor and containing a cAMP inducible beta-galactosidase reporter gene were thawed, centrifuged, DMSO containing media removed, and then seeded with fresh culture media into clear 384-well tissue culture treated plates (BD #353961) at a concentration of 10K cells/well. Prior to assay, these plates were cultured for two days at 37° C., 5% CO2, 90% Rh. On the day of the functional assay, culture media was removed and replaced with 45 μL assay medium (Hams/F-12 Modified (Mediatech # 10-080CV) supplemented w/0.1% BSA). Test compounds were diluted and 11 point curves created at a 1000× concentration in 100% DMSO. Immediately after addition of assay media to the cell plates, 50 nL of the appropriate test compound antagonist or agonist control curves were added to cell plates using a Cartesian Hummingbird. Compound curves were allowed to incubate at room temperature on cell plates for approximately 15 minutes before addition of a 15 nM NECA (Sigma E2387) agonist challenge (5 μL volume). A control curve of NECA, a DMSO/Media control, and a single dose of Forskolin (Sigma F3917) were also included on each plate. After additions, cell plates were allowed to incubate at 37° C., 5% CO2, 90% Rh for 5.5-6 hours. After incubation, media were removed, and cell plates were washed 1×50 μL with DPBS w/o Ca & Mg (Mediatech 21-031-CV). Into dry wells, 20 μL of 1×Reporter Lysis Buffer (Promega E3971 (diluted in dH2O from 5× stock)) was added to each well and plates frozen at −20° C. overnight. For β-galactosidase enzyme colorimetric assay, plates were thawed out at room temperature and 20 μL 2× assay buffer (Promega) was added to each well. Color was allowed to develop at 37° C., 5% CO2, 90% Rh for 1-1.5 h or until reasonable signal appeared. The colorimetric reaction was stopped with the addition of 60 μL/well 1M sodium carbonate. Plates were counted at 405 nm on a SpectraMax Microplate Reader (Molecular Devices). Data was analyzed in Microsoft Excel and IC/EC50 curves were fit using a standardized macro.

In the case of `C=CCN1CCN(c2cccc3c2-c2nc(N)nc(-c4ccccc4)c2C3=O)CC1` [Example 23, 9-(4-Allyl-piperazin-1-yl)-2-amino-4-phenyl-indeno[1,2-d]pyrimidin-5-one], the IC50 in assay [1] amounted to 748 nM. Besides, in assay [2], the IC50 was 12.5 nM and the A1/A2A amounted to 60.0758.

For `Nc1nc(-c2ccccc2)c2c(n1)-c1c(cccc1N1CCN(c3ncccc3F)CC1)C2=O` [Example 10, 2-Amino-9-[4-(3-fluoro-pyridin-2-yl)-piperazin-1-yl]-4-phenyl-indeno[1,2-d]pyrimidin-5-one], the IC50 in assay [1] is 1900 nM; in assay [2], 2.6 nM. In addition, the A1/A2A in assay [2] is given as 730.769.

`Nc1nc(-c2ccccc2)c2c(n1)-c1c(cccc1N1CCN(CCc3ccccc3)CC1)C2=O` [Example 12, 2-Amino-9-(4-phenethyl-piperazin-1-yl)-4-phenyl-indeno[1,2-d]pyrimidin-5-one]: in assay [1], the IC50 worked out at 1050 nM. In addition, in assay [2], the IC50 came to 2.27 nM and the A1/A2A is reported as 463.233.

Take `COc1ccc(C2CCN(c3cccc4c3-c3nc(N)nc(-c5ccccc5)c3C4=O)CC2)cc1` [Example 18, 2-Amino-9-[4-(4-methoxy-phenyl)-piperidin-1-yl]-4-phenyl-indeno[1,2-d]pyrimidin-5-one]: the IC50 in assay [1] worked out at 600 nM. Moreover, in assay [2], the IC50 amounted to 4.5 nM and the A1/A2A stood at 133.333.

`N#Cc1cccnc1N1CCN(c2cccc3c2-c2nc(N)nc(-c4ccccc4)c2C3=O)CC1` [Example 14, 2-[4-(2-Amino-5-oxo-4-phenyl-5H-indeno[1,2-d]pyrimidin-9-yl)-piperazin-1-yl]-nicotinonitrile] showed an IC50 in assay [1] of 1400 nM. Besides, in assay [2], the IC50 amounted to 3.2 nM and the A1/A2A stood at 437.5.

As for `Nc1nc(-c2ccccc2)c2c(n1)-c1c(cccc1N1CCN(CC3CC3)CC1)C2=O` [Example 22, 2-Amino-9-(4-cyclopropylmethyl-piperazin-1-yl)-4-phenyl-indeno[1,2-d]pyrimidin-5-one], the IC50 in assay [1] amounted to 818 nM. Besides, in assay [2], the IC50 is 10.6 nM and the A1/A2A is given as 77.5711.

`Nc1nc(-c2ccccc2)c2c(n1)-c1c(cccc1N1CCN(c3cccnc3)CC1)C2=O` [Example 26, 2-Amino-4-phenyl-9-(4-pyridin-3-yl-piperazin-1-yl)-indeno[1,2-d]pyrimidin-5-one]: the IC50 was 31 nM in assay [1] and 0.6 nM in assay [2]. In addition, the A1/A2A in assay [2] was 51.6667.

Compound `Nc1nc(-c2ccccc2)c2c(n1)-c1c(cccc1N1CCN(c3ccccn3)CC1)C2=O` [Example 17, 2-Amino-4-phenyl-9-(4-pyridin-2-yl-piperazin-1-yl)-indeno[1,2-d]pyrimidin-5-one] yielded an IC50 in assay [1] of 200 nM. For the same compound, in assay [2], the IC50 is 1.4 nM and the A1/A2A is 142.857.

Regarding `Nc1nc(-c2ccccc2)c2c(n1)-c1c(cccc1N1CCC(O)(c3ccccc3)CC1)C2=O` [Example 13, 2-Amino-9-(4-hydroxy-4-phenyl-piperidin-1-yl)-4-phenyl-indeno[1,2-d]pyrimidin-5-one], the IC50 was found to be 310 nM in assay [1] and 0.67 nM in assay [2]. Further, in assay [2], the A1/A2A was 462.687.
